From US6455540B1, “Methods of use of quinolone compounds against anaerobic pathogenic bacteria” (priority 1999, dated 2002)

Columns and labels:
Experiment in all cases: Agar dilution MIC
[1] = system: Peptostreptococcus prevotii; format: cell-based; details: 9 isolates
Fusobacterium varium = format: cell-based; details: 17 isolates
Bilophila wadsworthia = format: cell-based; details: 16 isolates; agar supplemented with pyruvate
[2] = system: Prevotella melaninogenica; format: cell-based; details: 12 isolates
[3] = system: Clostridium clostridioforme; format: cell-based; details: 11 isolates
Bacteroides ureolyticus = format: cell-based; details: 17 isolates
[4] = system: Fusobacterium spp group 1; format: cell-based; details: 19 isolates
[5] = system: Prevotella buccae-oris group; format: cell-based; details: 22 isolates
[6] = system: Prevotella denticola/loeschii group; format: cell-based; details: 6 isolates
Actinomyces israelii = format: cell-based; details: 6 isolates
[7] = system: Peptostreptococcus magnus; format: cell-based; details: 13 isolates
Fusobacterium russii = format: cell-based
[8] = system: Anaerobiospirillum succiniciproducens; format: cell-based; details: 3 isolates
Prevotella intermedia = format: cell-based; details: 11 isolates
Bacteroides tectum = format: cell-based; details: 22 isolates
[9] = system: Prevotella heparinolytica; format: cell-based; details: 16 isolates
[10] = system: Actinomyces odontolyticus; format: cell-based; details: 10 isolates
Clostridium inocuum = format: cell-based, Clostridium innocuum; details: 11 isolates
[11] = system: Peptostreptococcus micros; format: cell-based; details: 12 isolates
Prevotella bivia = format: cell-based; details: 21 isolates
Clostridium ramosum = format: cell-based; details: 10 isolates
Porphyromonas macaccae = format: cell-based; details: 13 isolates
[12] = system: Peptostreptococcus asaccharolyticus; format: cell-based; details: 11 isolates
Veillonella spp. = format: cell-based; details: 24 isolates
Bacteroides gracilis = format: cell-based, Bacteroides gracilis (Campylobacter gracilis); details: 11 isolates
Clostridium dfficile = format: cell-based, Clostridium difficile; details: 14 isolates
Porphyromonas gingivalis = format: cell-based; details: 13 isolates
[13] = system: Fusobacterium spp. group 2; format: cell-based, Fusobacterium mortiferum, necrogenes, ulcerans; details: 12 isolates
[14] = system: Anaerobiospirillum thomasii; format: cell-based; details: 13 isolates
[15] = system: Porphyromonas asaccharolyticus; format: cell-based, Porphyromonas asaccharolytica; details: 11 isolates
Porphyromonas canoris = format: cell-based; details: 10 isolates

Molecule: CC1(C)S[C@@H]2[C@H](NC(=O)Cc3ccccc3)C(=O)N2[C@H]1C(=O)O [Penicillin G]
- Minimal Inhibitory Concentration 50% (MIC50) [1]: 0.03 µg/mL
- Minimal Inhibitory Concentration Range [1]: 0.03 to 0.06 µg/mL
- Minimal Inhibitory Concentration 50% (MIC50) (Fusobacterium varium): 0.5 µg/mL
- Minimal Inhibitory Concentration 90% (MIC90) (Fusobacterium varium): 8 µg/mL
- Minimal Inhibitory Concentration 50% (MIC50) (Bilophila wadsworthia): 4 µg/mL
- Minimal Inhibitory Concentration 90% (MIC90) (Bilophila wadsworthia): 8 µg/mL
- Minimal Inhibitory Concentration Range (Bilophila wadsworthia): 2 to 16 µg/mL
- Minimal Inhibitory Concentration 50% (MIC50) [2]: 0.25 µg/mL
- Minimal Inhibitory Concentration 90% (MIC90) [2]: 2 µg/mL
- Minimal Inhibitory Concentration 50% (MIC50) [3]: 1 µg/mL
- Minimal Inhibitory Concentration 90% (MIC90) [3]: 16 µg/mL
- Minimal Inhibitory Concentration 90% (MIC90) (Bacteroides ureolyticus): 0.25 µg/mL
- Minimal Inhibitory Concentration 90% (MIC90) [4]: 2 µg/mL
- Minimal Inhibitory Concentration 50% (MIC50) [5]: 8 µg/mL
- Minimal Inhibitory Concentration 90% (MIC90) [5]: >32 µg/mL
- Minimal Inhibitory Concentration 50% (MIC50) [6]: 4 µg/mL
- Minimal Inhibitory Concentration 50% (MIC50) (Actinomyces israelii): 0.03 µg/mL
- Minimal Inhibitory Concentration 50% (MIC50) [7]: 0.03 µg/mL
- Minimal Inhibitory Concentration 90% (MIC90) [7]: 0.25 µg/mL
- Minimal Inhibitory Concentration 50% (MIC50) (Fusobacterium russii): 0.03 µg/mL
- Minimal Inhibitory Concentration 90% (MIC90) (Fusobacterium russii): 0.06 µg/mL
- Minimal Inhibitory Concentration 50% (MIC50) [8]: 0.5 µg/mL
- Minimal Inhibitory Concentration Range [8]: 0.5 to 1 µg/mL
- Minimal Inhibitory Concentration 50% (MIC50) (Prevotella intermedia): 0.03 µg/mL
- Minimal Inhibitory Concentration 90% (MIC90) (Prevotella intermedia): 4 µg/mL
- Minimal Inhibitory Concentration 50% (MIC50) (Bacteroides tectum): 0.03 µg/mL
- Minimal Inhibitory Concentration 90% (MIC90) (Bacteroides tectum): 16 µg/mL
- Minimal Inhibitory Concentration 50% (MIC50) [9]: 0.06 µg/mL
- Minimal Inhibitory Concentration 90% (MIC90) [9]: 0.125 µg/mL
- Minimal Inhibitory Concentration Range [9]: 0.06 to 0.25 µg/mL
- Minimal Inhibitory Concentration 50% (MIC50) [10]: 0.125 µg/mL
- Minimal Inhibitory Concentration 90% (MIC90) [10]: .0125 µg/mL
- Minimal Inhibitory Concentration Range [10]: 0.125 to 0.25 µg/mL
- Minimal Inhibitory Concentration 50% (MIC50) (Clostridium inocuum): 0.5 µg/mL
- Minimal Inhibitory Concentration 90% (MIC90) (Clostridium inocuum): 0.5 µg/mL
- Minimal Inhibitory Concentration 90% (MIC90) [11]: 0.03 µg/mL
- Minimal Inhibitory Concentration 50% (MIC50) (Prevotella bivia): 16 µg/mL
- Minimal Inhibitory Concentration 90% (MIC90) (Prevotella bivia): 32 µg/mL
- Minimal Inhibitory Concentration Range (Prevotella bivia): 0.25 to 32 µg/mL
- Minimal Inhibitory Concentration 50% (MIC50) (Clostridium ramosum): 0.06 µg/mL
- Minimal Inhibitory Concentration 90% (MIC90) (Clostridium ramosum): 1 µg/mL
- Minimal Inhibitory Concentration Range (Clostridium ramosum): 0.06 to 1 µg/mL
- Minimal Inhibitory Concentration 50% (MIC50) (Porphyromonas macaccae): 0.5 µg/mL
- Minimal Inhibitory Concentration 90% (MIC90) (Porphyromonas macaccae): 0.5 µg/mL
- Minimal Inhibitory Concentration 50% (MIC50) [12]: 0.03 µg/mL
- Minimal Inhibitory Concentration 90% (MIC90) [12]: 0.25 µg/mL
- Minimal Inhibitory Concentration 50% (MIC50) (Veillonella spp.): 1 µg/mL
- Minimal Inhibitory Concentration 90% (MIC90) (Veillonella spp.): 4 µg/mL
- Minimal Inhibitory Concentration 50% (MIC50) (Bacteroides gracilis): 0.125 µg/mL
- Minimal Inhibitory Concentration 90% (MIC90) (Bacteroides gracilis): 4 µg/mL
- Minimal Inhibitory Concentration 50% (MIC50) (Clostridium dfficile): 2 µg/mL
- Minimal Inhibitory Concentration 90% (MIC90) (Clostridium dfficile): 4 µg/mL
- Minimal Inhibitory Concentration Range (Clostridium dfficile): 1 to 4 µg/mL
- Minimal Inhibitory Concentration 90% (MIC90) (Porphyromonas gingivalis): 0.03 µg/mL
- Minimal Inhibitory Concentration 50% (MIC50) [13]: 0.25 µg/mL
- Minimal Inhibitory Concentration 90% (MIC90) [13]: 0.5 µg/mL
- Minimal Inhibitory Concentration 50% (MIC50) [14]: 0.06 µg/mL
- Minimal Inhibitory Concentration 90% (MIC90) [14]: 0.125 µg/mL
- Minimal Inhibitory Concentration Range [14]: 0.06 to 0.125 µg/mL

Molecule: Amoxicillin clavulanate
- Minimal Inhibitory Concentration 50% (MIC50) [1]: 0.03 µg/mL
- Minimal Inhibitory Concentration 50% (MIC50) (Fusobacterium varium): 2 µg/mL
- Minimal Inhibitory Concentration 90% (MIC90) (Fusobacterium varium): 4 µg/mL
- Minimal Inhibitory Concentration Range (Fusobacterium varium): 0.125 to 4 µg/mL
- Minimal Inhibitory Concentration 50% (MIC50) (Bilophila wadsworthia): 2 µg/mL
- Minimal Inhibitory Concentration 90% (MIC90) (Bilophila wadsworthia): 4 µg/mL
- Minimal Inhibitory Concentration Range (Bilophila wadsworthia): 1 to 4 µg/mL
- Minimal Inhibitory Concentration 50% (MIC50) [2]: 2 µg/mL
- Minimal Inhibitory Concentration 90% (MIC90) [2]: 4 µg/mL
- Minimal Inhibitory Concentration Range [2]: 0.03 to 16 µg/mL
- Minimal Inhibitory Concentration 50% (MIC50) [3]: 0.5 µg/mL
- Minimal Inhibitory Concentration 90% (MIC90) [3]: 1 µg/mL
- Minimal Inhibitory Concentration Range [3]: 0.5 to 8 µg/mL
- Minimal Inhibitory Concentration 50% (MIC50) [4]: 0.06 µg/mL
- Minimal Inhibitory Concentration 50% (MIC50) [5]: 0.25 µg/mL
- Minimal Inhibitory Concentration 90% (MIC90) [5]: 1 µg/mL
- Minimal Inhibitory Concentration Range [5]: 0.125 to 2 µg/mL
- Minimal Inhibitory Concentration 50% (MIC50) [6]: 0.06 µg/mL
- Minimal Inhibitory Concentration Range [6]: 0.03 to 0.5 µg/mL
- Minimal Inhibitory Concentration 50% (MIC50) (Actinomyces israelii): 0.03 µg/mL
- Minimal Inhibitory Concentration Range (Actinomyces israelii): 0.03 to 1 µg/mL
- Minimal Inhibitory Concentration 50% (MIC50) [7]: 0.03 µg/mL
- Minimal Inhibitory Concentration Range [7]: 0.03 to 1 µg/mL
- Minimal Inhibitory Concentration 50% (MIC50) (Fusobacterium russii): 0.06 µg/mL
- Minimal Inhibitory Concentration 50% (MIC50) [8]: 0.25 µg/mL
- Minimal Inhibitory Concentration Range [8]: 0.25 to 0.5 µg/mL
- Minimal Inhibitory Concentration 50% (MIC50) (Prevotella intermedia): 0.03 µg/mL
- Minimal Inhibitory Concentration Range (Prevotella intermedia): 0.03 to 0.5 µg/mL
- Minimal Inhibitory Concentration 90% (MIC90) [15]: 0.03 µg/mL
- Minimal Inhibitory Concentration 50% (MIC50) (Bacteroides tectum): 0.06 µg/mL
- Minimal Inhibitory Concentration 90% (MIC90) (Bacteroides tectum): 0.5 µg/mL
- Minimal Inhibitory Concentration Range (Bacteroides tectum): 0.03 to 0.5 µg/mL
- Minimal Inhibitory Concentration 90% (MIC90) [9]: 0.25 µg/mL
- Minimal Inhibitory Concentration Range [9]: 0.06 to 0.25 µg/mL
- Minimal Inhibitory Concentration 90% (MIC90) [10]: 0.25 µg/mL
- Minimal Inhibitory Concentration Range [10]: 0.06 to 0.125 µg/mL
- Minimal Inhibitory Concentration 50% (MIC50) (Clostridium inocuum): 0.5 µg/mL
- Minimal Inhibitory Concentration 90% (MIC90) (Clostridium inocuum): 0.5 µg/mL
- Minimal Inhibitory Concentration Range (Clostridium inocuum): 0.5 to 2 µg/mL
- Minimal Inhibitory Concentration 50% (MIC50) [11]: 0.03 µg/mL
- Minimal Inhibitory Concentration Range [11]: 0.03 to 0.125 µg/mL
- Minimal Inhibitory Concentration 50% (MIC50) (Prevotella bivia): 0.5 µg/mL
- Minimal Inhibitory Concentration 90% (MIC90) (Prevotella bivia): 4 µg/mL
- Minimal Inhibitory Concentration Range (Prevotella bivia): 0.06 to 4 µg/mL
- Minimal Inhibitory Concentration 50% (MIC50) (Clostridium ramosum): 0.06 µg/mL
- Minimal Inhibitory Concentration 90% (MIC90) (Clostridium ramosum): 0.25 µg/mL
- Minimal Inhibitory Concentration Range (Clostridium ramosum): 0.06 to 0.25 µg/mL
- Minimal Inhibitory Concentration 50% (MIC50) [12]: 0.03 µg/mL
- Minimal Inhibitory Concentration Range [12]: 0.03 to 1 µg/mL
- Minimal Inhibitory Concentration 50% (MIC50) (Veillonella spp.): 0.5 µg/mL
- Minimal Inhibitory Concentration 90% (MIC90) (Veillonella spp.): 2 µg/mL
- Minimal Inhibitory Concentration 50% (MIC50) (Bacteroides gracilis): 0.5 µg/mL
- Minimal Inhibitory Concentration 90% (MIC90) (Bacteroides gracilis): 2 µg/mL
- Minimal Inhibitory Concentration 50% (MIC50) (Clostridium dfficile): 1 µg/mL
- Minimal Inhibitory Concentration 90% (MIC90) (Clostridium dfficile): 1 µg/mL
- Minimal Inhibitory Concentration Range (Clostridium dfficile): 0.5 to 1 µg/mL
- Minimal Inhibitory Concentration 90% (MIC90) (Porphyromonas gingivalis): 0.06 µg/mL
- Minimal Inhibitory Concentration 50% (MIC50) [13]: 1 µg/mL
- Minimal Inhibitory Concentration 90% (MIC90) [13]: 2 µg/mL
- Minimal Inhibitory Concentration 90% (MIC90) [14]: 0.25 µg/mL
- Minimal Inhibitory Concentration Range [14]: 0.125 to 0.25 µg/mL
- Minimal Inhibitory Concentration 90% (MIC90) (Porphyromonas canoris): 0.03 µg/mL
